From publication PMC10962654 (Journal of Food and Drug Analysis, 2023)
Like-named read-outs stand apart in the source and are kept apart here.

Experiments:
α-HBDH = test: Plasma α-HBDH; assay type: in vivo, Sprague Dawley rats; settings: MI/R rats, Sigmoid-Emax model
IMA = test: Plasma IMA; assay type: in vivo, Sprague Dawley rats; settings: MI/R rats, Sigmoid-Emax model
[1] = MI/R rats, plasma, n = 6
cTn I = test: Plasma cTn I; assay type: in vivo, Sprague Dawley rats; settings: MI/R rats, Sigmoid-Emax model
CK-MB = test: Plasma CK-MB; assay type: in vivo, Sprague Dawley rats; settings: MI/R rats, Sigmoid-Emax model

| CL2 ([1]; GHI-H (GHI 10 mL/kg, i.v.)) | K10 ([1]; GHI-H (GHI 10 mL/kg, i.v.)) | K12 ([1]; GHI-H (GHI 10 mL/kg, i.v.)) | K21 ([1]; GHI-H (GHI 10 mL/kg, i.v.)) | Q ([1]; GHI-H (GHI 10 mL/kg, i.v.)) | V1 ([1]; GHI-H (GHI 10 mL/kg, i.v.)) | V2 ([1]; GHI-H (GHI 10 mL/kg, i.v.)) | t1/2α ([1]; GHI-H (GHI 10 mL/kg, i.v.)) | CL1 ([1]; GHI-L (GHI […], i.v.)) | CL2 ([1]; GHI-L (GHI […], i.v.)) | K10 ([1]; GHI-L (GHI […], i.v.)) | K12 ([1]; GHI-L (GHI […], i.v.)) | K21 ([1]; GHI-L (GHI […], i.v.)) | Q ([1]; GHI-L (GHI […], i.v.)) | V1 ([1]; GHI-L (GHI […], i.v.)) | V2 ([1]; GHI-L (GHI […], i.v.)) | t1/2α ([1]; GHI-L (GHI […], i.v.)) | CL1 ([1]; GHI-M (GHI 5 mL/kg, i.v.)) | CL2 ([1]; GHI-M (GHI 5 mL/kg, i.v.)) | K10 ([1]; GHI-M (GHI 5 mL/kg, i.v.)) | Structure (SMILES) | also measured |
| --- | --- | --- | --- | --- | --- | --- | --- | --- | --- | --- | --- | --- | --- | --- | --- | --- | --- | --- | --- | --- | --- |
| 173.38 ± 15.2 mL/min/kg | 6.701 ± 1.078 h⁻¹ | 27.459 ± 6.003 h⁻¹ | 8.203 ± 0.823 h⁻¹ | 173.3 ± 15.2 mL/min/kg | 0.389 ± 0.059 L/kg | 1.273 ± 0.103 L/kg | 1.08 ± 0.18 min | 44.48 ± 2.82 mL/min/kg | 150 ± 15.1 mL/min/kg | 4.274 ± 1.912 h⁻¹ | 14.327 ± 4.021 h⁻¹ | 3.902 ± 0.294 h⁻¹ | 149.8 ± 15.1 mL/min/kg | 0.672 ± 0.201 L/kg | 2.304 ± 0.146 L/kg | 2.04 ± 0.54 min | 32.32 ± 2.43 mL/min/kg | 120 ± 8.42 mL/min/kg | 3.987 ± 0.663 h⁻¹ | O=C(/C=C/c1ccc(O)c(O)c1)O[C@@H]1C[C@](O)(C(=O)O)C[C@@H](O)[C@H]1O [Chlorogenic acid, chlorogenic acid] | Emax (maximal effect) of optimal PK/PD equation, Δα-HBDH (α-HBDH; GHI-H (10 mL/kg, i.v.)): 86.524; Emax (maximal effect) of optimal PK/PD equation, Δα-HBDH (α-HBDH; GHI-L ([…], i.v.)): 48.745; Emax (maximal effect) of optimal PK/PD equation, Δα-HBDH (α-HBDH; GHI-M (5 mL/kg, i.v.)): 72.774; Emax (maximal effect) of optimal PK/PD equation, ΔIMA (IMA; GHI-L ([…], i.v.)): 28.211; CL1 ([1]; GHI-H (GHI 10 mL/kg, i.v.)): 42.57 ± 1.53 mL/min/kg; K12 ([1]; GHI-M (GHI 5 mL/kg, i.v.)): 14.709 ± 1.766 h⁻¹; K21 ([1]; GHI-M (GHI 5 mL/kg, i.v.)): 4.84 ± 0.29 h⁻¹; Q ([1]; GHI-M (GHI 5 mL/kg, i.v.)): 119.8 ± 8.4 mL/min/kg; V1 ([1]; GHI-M (GHI 5 mL/kg, i.v.)): 0.496 ± 0.08 L/kg; V2 ([1]; GHI-M (GHI 5 mL/kg, i.v.)): 1.49 ± 0.142 L/kg; t1/2α ([1]; GHI-M (GHI 5 mL/kg, i.v.)): 1.86 ± 0.18 min; Emax (maximal effect) of optimal PK/PD equation, ΔcTn I (cTn I; GHI-M (5 mL/kg, i.v.)): 7.28 |
| 120.9 ± 37.88 mL/min/kg | 21.205 ± 16.45 h⁻¹ | 26.235 ± 8.526 h⁻¹ | 6.031 ± 0.862 h⁻¹ | 121 ± 37.85 mL/min/kg | 0.309 ± 0.126 L/kg | 1.207 ± 0.352 L/kg | 0.9 ± 0.24 min | 88.93 ± 8.22 mL/min/kg | 144.8 ± 10.5 mL/min/kg | 11.259 ± 2.48 h⁻¹ | 18.242 ± 3.358 h⁻¹ | 2.929 ± 0.214 h⁻¹ | 144.8 ± 10.5 mL/min/kg | 0.493 ± 0.117 L/kg | 2.979 ± 0.292 L/kg | 1.38 ± 0.3 min | 76.58 ± 3.37 mL/min/kg | 76.22 ± 11.2 mL/min/kg | 14.742 ± 5.174 h⁻¹ | O=c1c(O[C@@H]2O[C@H](CO)[C@H](O)[C@H](O)[C@H]2O)c(-c2ccc(O)c(O)c2)oc2cc(O)cc(O)c12 [Hyperoside, hyperoside] | CL1 ([1]; GHI-H (GHI 10 mL/kg, i.v.)): 81.92 ± 12 mL/min/kg; K12 ([1]; GHI-M (GHI 5 mL/kg, i.v.)): 14.086 ± 2.688 h⁻¹; K21 ([1]; GHI-M (GHI 5 mL/kg, i.v.)): 4.889 ± 0.407 h⁻¹; Q ([1]; GHI-M (GHI 5 mL/kg, i.v.)): 76.2 ± 11.2 mL/min/kg; V1 ([1]; GHI-M (GHI 5 mL/kg, i.v.)): 0.34 ± 0.1 L/kg; V2 ([1]; GHI-M (GHI 5 mL/kg, i.v.)): 0.935 ± 0.119 L/kg; t1/2α ([1]; GHI-M (GHI 5 mL/kg, i.v.)): 1.38 ± 0.3 min |
|  |  |  |  |  |  |  |  |  |  |  |  |  |  |  |  |  |  |  |  | CC(=O)N[C@@H](CCC(N)=O)C(=O)O [N-acetyl-L-glutamine] | Emax (maximal effect) of optimal PK/PD equation, ΔCK-MB (CK-MB; GHI-L ([…], i.v.)): 11.04; Emax (maximal effect) of optimal PK/PD equation, ΔCK-MB (CK-MB; GHI-M (5 mL/kg, i.v.)): 13.089; Emax (maximal effect) of optimal PK/PD equation, Δα-HBDH (α-HBDH; GHI-H (10 mL/kg, i.v.)): 91.925; Emax (maximal effect) of optimal PK/PD equation, Δα-HBDH (α-HBDH; GHI-L ([…], i.v.)): 48.85; Emax (maximal effect) of optimal PK/PD equation, Δα-HBDH (α-HBDH; GHI-M (5 mL/kg, i.v.)): 72.312; Emax (maximal effect) of optimal PK/PD equation, ΔIMA (IMA; GHI-H (10 mL/kg, i.v.)): 77.916; Emax (maximal effect) of optimal PK/PD equation, ΔIMA (IMA; GHI-L ([…], i.v.)): 31.136; Emax (maximal effect) of optimal PK/PD equation, ΔIMA (IMA; GHI-M (5 mL/kg, i.v.)): 42.733; AUC(0-t) ([1]; GHI-H (GHI 10 mL/kg, i.v.)): 1048.88 ± 551.764 ng·h/mL; AUC(0-∞) ([1]; GHI-H (GHI 10 mL/kg, i.v.)): 1079.308 ± 551.248 ng·h/mL; t1/2β ([1]; GHI-H (GHI 10 mL/kg, i.v.)): 42.5 ± 4.98 min; AUC(0-t) ([1]; GHI-L (GHI […], i.v.)): 538.219 ± 290.308 ng·h/mL; AUC(0-∞) ([1]; GHI-L (GHI […], i.v.)): 553.382 ± 290.017 ng·h/mL; t1/2β ([1]; GHI-L (GHI […], i.v.)): 48.8 ± 4.68 min; AUC(0-t) ([1]; GHI-M (GHI 5 mL/kg, i.v.)): 1012.749 ± 472.353 ng·h/mL; AUC(0-∞) ([1]; GHI-M (GHI 5 mL/kg, i.v.)): 1060.065 ± 473.211 ng·h/mL; t1/2β ([1]; GHI-M (GHI 5 mL/kg, i.v.)): 27.7 ± 1.38 min; Emax (maximal effect) of optimal PK/PD equation, ΔcTn I (cTn I; GHI-H (10 mL/kg, i.v.)): 10.158; Emax (maximal effect) of optimal PK/PD equation, ΔcTn I (cTn I; GHI-L ([…], i.v.)): 4.608; Emax (maximal effect) of optimal PK/PD equation, ΔcTn I (cTn I; GHI-M (5 mL/kg, i.v.)): 6.714 |

| Structure (SMILES) | CL2 ([1]; GHI-H (GHI 10 mL/kg, i.v.)) | K10 ([1]; GHI-H (GHI 10 mL/kg, i.v.)) | K12 ([1]; GHI-H (GHI 10 mL/kg, i.v.)) | K21 ([1]; GHI-H (GHI 10 mL/kg, i.v.)) | Q ([1]; GHI-H (GHI 10 mL/kg, i.v.)) | V1 ([1]; GHI-H (GHI 10 mL/kg, i.v.)) | V2 ([1]; GHI-H (GHI 10 mL/kg, i.v.)) | t1/2α ([1]; GHI-H (GHI 10 mL/kg, i.v.)) | CL1 ([1]; GHI-L (GHI […], i.v.)) | CL2 ([1]; GHI-L (GHI […], i.v.)) | K10 ([1]; GHI-L (GHI […], i.v.)) | K12 ([1]; GHI-L (GHI […], i.v.)) | K21 ([1]; GHI-L (GHI […], i.v.)) | Q ([1]; GHI-L (GHI […], i.v.)) | V1 ([1]; GHI-L (GHI […], i.v.)) | V2 ([1]; GHI-L (GHI […], i.v.)) | t1/2α ([1]; GHI-L (GHI […], i.v.)) | CL1 ([1]; GHI-M (GHI 5 mL/kg, i.v.)) | CL2 ([1]; GHI-M (GHI 5 mL/kg, i.v.)) | K10 ([1]; GHI-M (GHI 5 mL/kg, i.v.)) | also measured |
| --- | --- | --- | --- | --- | --- | --- | --- | --- | --- | --- | --- | --- | --- | --- | --- | --- | --- | --- | --- | --- | --- |
| O=c1c(O[C@@H]2O[C@H](CO)[C@@H](O)[C@H](O)[C@H]2O)c(-c2ccc(O)cc2)oc2cc(O)cc(O)c12 [Kaempferol-3-O-glucoside, kaempferol-3-O-glucoside] | 141.2 ± 10.2 mL/min/kg | 9.636 ± 0.934 h⁻¹ | 17.927 ± 1.512 h⁻¹ | 6.02 ± 0.636 h⁻¹ | 141.2 ± 10.2 mL/min/kg | 0.475 ± 0.044 L/kg | 1.419 ± 0.173 L/kg | 1.32 ± 0.12 min | 87.58 ± 9.88 mL/min/kg | 133.3 ± 27.68 mL/min/kg | 10.09 ± 2.541 h⁻¹ | 15.148 ± 3.65 h⁻¹ | 2.832 ± 0.492 h⁻¹ | 133.3 ± 27.67 mL/min/kg | 0.54 ± 0.101 L/kg | 2.822 ± 0.3 L/kg | 1.56 ± 0.3 min | 68.72 ± 8.47 mL/min/kg | 79.43 ± 17.82 mL/min/kg | 8.042 ± 3.472 h⁻¹ | AUC(0-t) ([1]; GHI-H (GHI 10 mL/kg, i.v.)): 116.314 ± 56.651 ng·h/mL; AUC(0-∞) ([1]; GHI-H (GHI 10 mL/kg, i.v.)): 122.652 ± 56.297 ng·h/mL; t1/2β ([1]; GHI-H (GHI 10 mL/kg, i.v.)): 23.1 ± 3.18 min; AUC(0-t) ([1]; GHI-L (GHI […], i.v.)): 23.576 ± 12.633 ng·h/mL; AUC(0-∞) ([1]; GHI-L (GHI […], i.v.)): 25.109 ± 12.653 ng·h/mL; t1/2β ([1]; GHI-L (GHI […], i.v.)): 40.4 ± 5.64 min; AUC(0-t) ([1]; GHI-M (GHI 5 mL/kg, i.v.)): 31.49 ± 12.303 ng·h/mL; AUC(0-∞) ([1]; GHI-M (GHI 5 mL/kg, i.v.)): 35.448 ± 11.949 ng·h/mL; K12 ([1]; GHI-M (GHI 5 mL/kg, i.v.)): 9.709 ± 5.342 h⁻¹; K21 ([1]; GHI-M (GHI 5 mL/kg, i.v.)): 3.087 ± 1.742 h⁻¹; Q ([1]; GHI-M (GHI 5 mL/kg, i.v.)): 79.4 ± 17.78 mL/min/kg; V1 ([1]; GHI-M (GHI 5 mL/kg, i.v.)): 0.59 ± 0.22 L/kg; V2 ([1]; GHI-M (GHI 5 mL/kg, i.v.)): 1.87 ± 0.735 L/kg; t1/2α ([1]; GHI-M (GHI 5 mL/kg, i.v.)): 2.7 ± 1.44 min; t1/2β ([1]; GHI-M (GHI 5 mL/kg, i.v.)): 41.5 ± 21.7 min; Emax (maximal effect) of optimal PK/PD equation, ΔcTn I (cTn I; GHI-L ([…], i.v.)): 4.625 |
